# In article PMC3108484 (Frontiers in Pharmacology, 2011):
# Values joined by “and” are separate entries in the source; they are usually repeats but may differ in a detail not shown here. Equal values may be shown once.
# What was measured:
# Guinea pig H2 = Guinea pig H2 (Cavia porcellus, UniProt P47747); experiment: Radioligand binding: Guinea pig H2
# SK+Ca channel = experiment: Radioligand binding: SK+Ca channel; conditions: [125I]-apamin 0.004 nM
# Human NK3 = Human NK3 (Homo sapiens, UniProt P29371); experiment: Radioligand binding: Human NK3
# Human NK3, sequence (P29371 whole entry): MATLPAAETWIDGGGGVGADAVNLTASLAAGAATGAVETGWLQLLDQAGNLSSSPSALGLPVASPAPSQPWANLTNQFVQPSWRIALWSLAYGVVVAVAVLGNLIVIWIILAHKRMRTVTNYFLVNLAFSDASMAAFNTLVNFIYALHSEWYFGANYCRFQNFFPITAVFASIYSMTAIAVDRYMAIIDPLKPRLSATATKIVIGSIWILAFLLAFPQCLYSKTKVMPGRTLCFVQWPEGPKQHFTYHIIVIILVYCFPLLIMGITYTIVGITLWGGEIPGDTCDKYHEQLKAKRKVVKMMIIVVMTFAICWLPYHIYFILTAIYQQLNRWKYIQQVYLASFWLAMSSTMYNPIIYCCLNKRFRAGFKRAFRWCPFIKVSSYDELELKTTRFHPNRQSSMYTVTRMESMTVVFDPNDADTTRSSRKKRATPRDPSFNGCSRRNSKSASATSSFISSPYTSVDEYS
# Human Y2 = Human Y2 (Homo sapiens, UniProt P49146); experiment: Radioligand binding: Human Y2
# Human Y2, sequence (P49146 whole entry): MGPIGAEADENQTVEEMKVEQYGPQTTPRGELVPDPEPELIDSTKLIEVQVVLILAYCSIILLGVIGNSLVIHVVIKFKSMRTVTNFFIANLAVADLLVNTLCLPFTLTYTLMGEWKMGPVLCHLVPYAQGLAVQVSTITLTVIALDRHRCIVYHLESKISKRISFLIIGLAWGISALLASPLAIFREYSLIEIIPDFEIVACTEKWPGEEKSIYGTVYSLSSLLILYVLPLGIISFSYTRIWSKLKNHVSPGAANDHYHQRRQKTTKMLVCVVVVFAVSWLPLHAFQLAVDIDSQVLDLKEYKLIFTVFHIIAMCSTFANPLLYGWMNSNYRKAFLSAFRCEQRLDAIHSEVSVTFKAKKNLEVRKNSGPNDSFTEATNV
# [1] = biological target: Human acetylcholinesterase (Homo sapiens, UniProt P22303); experiment: Enzyme inhibition: Human acetylcholinesterase
# Human acetylcholinesterase, sequence (P22303 32-614): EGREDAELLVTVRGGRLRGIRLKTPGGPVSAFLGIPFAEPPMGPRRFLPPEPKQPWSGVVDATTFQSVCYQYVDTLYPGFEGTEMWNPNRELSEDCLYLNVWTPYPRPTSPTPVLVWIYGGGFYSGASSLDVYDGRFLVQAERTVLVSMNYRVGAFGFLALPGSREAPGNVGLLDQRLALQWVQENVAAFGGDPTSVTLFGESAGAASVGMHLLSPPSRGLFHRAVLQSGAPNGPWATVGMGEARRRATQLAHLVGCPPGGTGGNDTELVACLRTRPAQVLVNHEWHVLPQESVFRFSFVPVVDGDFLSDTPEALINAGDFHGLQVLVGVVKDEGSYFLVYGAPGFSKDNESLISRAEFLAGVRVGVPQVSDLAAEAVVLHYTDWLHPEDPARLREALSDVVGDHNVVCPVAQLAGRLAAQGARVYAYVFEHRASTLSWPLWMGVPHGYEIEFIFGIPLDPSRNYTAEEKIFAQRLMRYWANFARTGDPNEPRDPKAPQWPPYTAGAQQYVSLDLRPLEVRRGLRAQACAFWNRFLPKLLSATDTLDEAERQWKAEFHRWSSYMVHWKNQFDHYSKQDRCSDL
# Rat NT (non-selective) = experiment: Radioligand binding: Rat NT; conditions: [125I]-Tyr3-neurotensin 0.05 nM
# K+ATP channel = K+ATP channel (Rattus norvegicus, UniProt Q09429); experiment: Radioligand binding: K+ATP channel; conditions: read-out: % Inhibition of specific binding (1 μM)
# [2] = biological target: Rat Ca2+ channel (L, diltiazem site); experiment: Radioligand binding: Rat Ca2+ channel; conditions: [3H]-diltiazem 5 nM
# Rat 5-HT1B = Rat 5-HT1B (Rattus norvegicus, UniProt P28564); experiment: Radioligand binding: Rat 5-HT1B
# 5-HT4 receptor = 5-HT4 receptor (Cavia porcellus, UniProt O70528); experiment: Guinea pig colonic longitudinal muscle/myenteric plexus; conditions: isolated tissue, % of primed 5-HT (0.3 μM) maximum
# 5-HT4 receptor, sequence (O70528 whole entry): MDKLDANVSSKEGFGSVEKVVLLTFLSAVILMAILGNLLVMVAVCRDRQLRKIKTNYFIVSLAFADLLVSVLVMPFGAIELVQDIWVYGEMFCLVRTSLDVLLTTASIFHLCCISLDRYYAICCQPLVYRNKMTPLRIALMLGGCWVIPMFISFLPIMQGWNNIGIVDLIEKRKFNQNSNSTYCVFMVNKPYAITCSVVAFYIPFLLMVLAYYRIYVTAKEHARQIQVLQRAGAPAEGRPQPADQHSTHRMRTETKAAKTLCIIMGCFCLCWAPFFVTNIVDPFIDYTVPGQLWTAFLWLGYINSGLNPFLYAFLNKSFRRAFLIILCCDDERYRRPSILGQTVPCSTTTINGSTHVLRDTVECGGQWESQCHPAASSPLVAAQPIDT
# Rat α1 (non-selective) = experiment: Radioligand binding: Rat α1; conditions: [3H]-prazosin 0.25 nM
# Human δ2 = Human δ2 (Homo sapiens, UniProt P41143); experiment: Radioligand binding: Human δ2 opiate receptor
# Human 5-HT5a = Human 5-HT5a (Homo sapiens, UniProt P47898); experiment: Radioligand binding: Human 5-HT5a
# Human D5 = Human D5 (Homo sapiens, UniProt P21918); experiment: Radioligand binding: Human D5
# Rat AMPA = experiment: Radioligand binding: Rat AMPA; conditions: [3H]-AMPA 8 nM
# Human M1 = Human M1 (Homo sapiens, UniProt P11229); experiment: Radioligand binding: Human M1
# Human CCK1 (CCKA) = Human CCK1 (CCKA) (Homo sapiens, UniProt P32238); experiment: Radioligand binding: Human CCK1
# [3] = both, human, in vivo, 0.5 mg
# Human 5-HT6 = Human 5-HT6 (Homo sapiens, UniProt P50406); experiment: Radioligand binding: Human 5-HT6
# [4] = tested on: canine antrum, duodenum, and jejunum; experiment: Dog gastrointestinal contractility; type: in vivo; conditions: oral, conscious fasted dogs
# [5] = biological target: Rat Ca2+ channel (L, verapamil site); experiment: Radioligand binding: Rat Ca2+ channel; conditions: [3H]-(−)D 888 0.5 nM
# Human ETB = Human ETB (Homo sapiens, UniProt P24530); experiment: Radioligand binding: Human ETB
# Human ETB, sequence (P24530 27-442): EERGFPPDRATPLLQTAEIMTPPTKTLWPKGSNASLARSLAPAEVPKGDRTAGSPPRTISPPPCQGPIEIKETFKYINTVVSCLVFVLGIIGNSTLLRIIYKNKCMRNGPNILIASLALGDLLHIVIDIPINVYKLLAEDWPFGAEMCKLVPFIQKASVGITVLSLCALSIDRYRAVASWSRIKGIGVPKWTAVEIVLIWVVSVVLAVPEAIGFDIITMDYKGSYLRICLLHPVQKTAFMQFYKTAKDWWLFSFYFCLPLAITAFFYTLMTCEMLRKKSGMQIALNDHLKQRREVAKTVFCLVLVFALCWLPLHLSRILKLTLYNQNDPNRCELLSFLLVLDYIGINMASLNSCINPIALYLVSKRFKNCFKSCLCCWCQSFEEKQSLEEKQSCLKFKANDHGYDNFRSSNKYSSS
# Human 5-HT2A = Human 5-HT2A (Homo sapiens, UniProt P28223); experiment: Radioligand binding: Human 5-HT2A
# Human ETA = Human ETA (Homo sapiens, UniProt P25101); experiment: Radioligand binding: Human ETA
# Human ETA, sequence (P25101 21-427): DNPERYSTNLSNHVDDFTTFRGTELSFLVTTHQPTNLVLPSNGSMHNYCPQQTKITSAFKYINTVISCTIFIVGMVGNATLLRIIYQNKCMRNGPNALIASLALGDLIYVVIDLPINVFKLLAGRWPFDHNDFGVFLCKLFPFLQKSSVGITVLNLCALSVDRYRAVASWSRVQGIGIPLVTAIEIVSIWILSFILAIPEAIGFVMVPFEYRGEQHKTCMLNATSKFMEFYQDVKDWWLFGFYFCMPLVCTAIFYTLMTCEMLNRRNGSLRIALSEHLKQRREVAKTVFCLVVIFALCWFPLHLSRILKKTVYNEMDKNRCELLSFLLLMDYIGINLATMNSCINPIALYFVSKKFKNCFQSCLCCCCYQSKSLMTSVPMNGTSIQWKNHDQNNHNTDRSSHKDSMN
# Rat dopamine transporter = Rat dopamine transporter (Rattus norvegicus, UniProt P23977); experiment: Radioligand binding: Rat dopamine transporter
# Rat dopamine transporter, sequence (P23977 whole entry): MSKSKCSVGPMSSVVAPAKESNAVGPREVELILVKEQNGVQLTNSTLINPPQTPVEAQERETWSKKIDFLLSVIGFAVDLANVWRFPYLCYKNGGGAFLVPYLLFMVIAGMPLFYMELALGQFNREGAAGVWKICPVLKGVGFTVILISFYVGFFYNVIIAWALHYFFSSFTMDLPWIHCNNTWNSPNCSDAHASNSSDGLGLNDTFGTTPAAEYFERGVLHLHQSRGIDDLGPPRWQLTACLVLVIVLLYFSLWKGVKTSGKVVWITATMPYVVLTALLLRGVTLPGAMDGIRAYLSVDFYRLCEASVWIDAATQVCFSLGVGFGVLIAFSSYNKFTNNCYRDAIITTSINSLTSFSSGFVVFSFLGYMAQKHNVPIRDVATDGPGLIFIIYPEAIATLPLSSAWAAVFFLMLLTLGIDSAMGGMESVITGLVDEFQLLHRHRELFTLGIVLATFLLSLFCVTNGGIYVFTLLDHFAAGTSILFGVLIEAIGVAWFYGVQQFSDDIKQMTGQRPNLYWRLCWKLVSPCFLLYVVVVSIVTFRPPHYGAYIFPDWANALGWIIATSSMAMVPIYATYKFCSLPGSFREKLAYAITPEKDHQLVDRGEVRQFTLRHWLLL
# Human CB1 = Human CB1 (Homo sapiens, UniProt P21554); experiment: Radioligand binding: Human CB1
# Human 5-HT transporter = Human 5-HT transporter (Homo sapiens, UniProt P31645); experiment: Radioligand binding: Human 5-HT transporter
# Human β1 = Human β1 (Homo sapiens, UniProt P08588); experiment: Radioligand binding: Human β1
# Human VPAC1 (VIP1) = Human VPAC1 (VIP1) (Homo sapiens, UniProt P32241); experiment: Radioligand binding: Human VPAC1
# Human VPAC1 (VIP1), sequence (P32241 31-457): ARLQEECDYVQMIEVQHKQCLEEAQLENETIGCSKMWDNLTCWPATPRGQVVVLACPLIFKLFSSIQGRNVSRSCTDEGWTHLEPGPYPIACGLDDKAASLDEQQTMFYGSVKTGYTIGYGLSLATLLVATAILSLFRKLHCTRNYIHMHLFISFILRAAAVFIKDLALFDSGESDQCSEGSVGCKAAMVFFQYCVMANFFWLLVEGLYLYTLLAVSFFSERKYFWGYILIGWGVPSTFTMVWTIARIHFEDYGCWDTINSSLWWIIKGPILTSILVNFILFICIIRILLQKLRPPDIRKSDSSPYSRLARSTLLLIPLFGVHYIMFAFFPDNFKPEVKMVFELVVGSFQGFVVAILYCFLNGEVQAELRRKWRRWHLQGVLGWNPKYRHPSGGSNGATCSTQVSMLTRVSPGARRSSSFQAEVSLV
# Human D4.4 = Human D4.4 (Homo sapiens, UniProt P21917); experiment: Radioligand binding: Human D4.4
# Human D4.4, sequence (P21917 whole entry): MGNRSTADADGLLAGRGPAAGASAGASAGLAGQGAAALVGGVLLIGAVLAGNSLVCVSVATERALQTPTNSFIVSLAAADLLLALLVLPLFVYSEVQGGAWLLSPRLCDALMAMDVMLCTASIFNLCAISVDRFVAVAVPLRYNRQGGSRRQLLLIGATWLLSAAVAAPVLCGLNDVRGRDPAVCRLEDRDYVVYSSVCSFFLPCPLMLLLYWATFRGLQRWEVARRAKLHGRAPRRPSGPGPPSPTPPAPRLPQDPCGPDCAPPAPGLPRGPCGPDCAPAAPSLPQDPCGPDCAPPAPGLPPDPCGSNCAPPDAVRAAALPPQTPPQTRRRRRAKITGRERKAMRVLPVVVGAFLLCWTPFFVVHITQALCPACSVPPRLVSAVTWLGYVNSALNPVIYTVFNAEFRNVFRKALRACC
# Rat BB (non-selective) = experiment: Radioligand binding: Rat BB; conditions: [125I]-[Tyr4]-bombesin 0.01 nM
# [6] = biological target: Rat Ca2+ channel (L, DHP site); experiment: Radioligand binding: Rat Ca2+ channel; conditions: [3H]-(+)PN 200-110 0.04 nM
# [7] = biological target: Rat α7 nAChR (α-BGTX-sensitive) (Rattus norvegicus, UniProt Q05941); experiment: biochemical; type: binding
# Rat α7 nAChR (α-BGTX-sensitive), sequence (Q05941 23-502): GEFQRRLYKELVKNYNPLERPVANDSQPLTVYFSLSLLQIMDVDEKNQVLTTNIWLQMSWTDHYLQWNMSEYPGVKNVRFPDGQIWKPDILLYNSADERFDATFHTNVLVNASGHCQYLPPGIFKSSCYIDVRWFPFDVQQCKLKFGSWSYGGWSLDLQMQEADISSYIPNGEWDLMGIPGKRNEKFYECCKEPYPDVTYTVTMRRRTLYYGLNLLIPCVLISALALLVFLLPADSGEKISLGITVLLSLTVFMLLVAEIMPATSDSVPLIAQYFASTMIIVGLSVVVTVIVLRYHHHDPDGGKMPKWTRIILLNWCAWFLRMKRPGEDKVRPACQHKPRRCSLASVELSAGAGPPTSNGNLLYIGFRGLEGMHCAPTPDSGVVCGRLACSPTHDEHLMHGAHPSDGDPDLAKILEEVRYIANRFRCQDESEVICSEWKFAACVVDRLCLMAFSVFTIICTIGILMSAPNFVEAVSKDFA
# [8] = read-out: % Inhibition of specific binding (1 μM)
# Guinea pig H2, sequence (P47747 whole entry): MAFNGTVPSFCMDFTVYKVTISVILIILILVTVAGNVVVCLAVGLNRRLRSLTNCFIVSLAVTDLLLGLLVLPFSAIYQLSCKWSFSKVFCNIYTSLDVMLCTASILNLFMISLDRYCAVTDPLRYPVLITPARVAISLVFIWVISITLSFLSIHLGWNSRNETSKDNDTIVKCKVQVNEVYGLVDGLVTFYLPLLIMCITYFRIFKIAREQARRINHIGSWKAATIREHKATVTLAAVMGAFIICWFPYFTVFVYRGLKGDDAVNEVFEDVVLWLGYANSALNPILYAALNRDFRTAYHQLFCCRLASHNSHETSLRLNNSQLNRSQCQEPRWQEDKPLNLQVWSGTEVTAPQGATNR
compound,measurement,setting,value
"COC(=O)N1CCC(CN2CCC(CNC(=O)c3cccc4[nH]c(C(C)C)nc34)CC2)CC1 [TD-8954, 4-(4-{[(2-isopropyl-1H-benzoimidazole-4-carbonyl)amino]methyl}-piperidin-1-ylmethyl)piperidine-1-carboxylic acid methyl ester]",Ki,Guinea pig H2,> 1000 nM
same,inhibition at 1 µM,Guinea pig H2; [8],4%
same,pKi,SK+Ca channel,<6
same,% Inhibition of specific binding (1 μM),SK+Ca channel; TD-8954 1 μM,−4%
same,Ki,Human NK3,> 1000 nM
same,inhibition at 1 µM,Human NK3; [8],-3%
same,Ki,Human Y2,> 1000 nM
same,inhibition at 1 µM,Human Y2; [8],-5%
same,IC50,[1],> 1000 nM
same,inhibition at 1 µM,[1]; read-out: % Inhibition of control (1 μM),2%
same,pKi,Rat NT (non-selective),<6
same,% Inhibition of specific binding (1 μM),Rat NT (non-selective); TD-8954 1 μM,4%
same,inhibition at 1 µM,K+ATP channel,5%
same,pKi,[2],<6
same,Ki,Rat 5-HT1B,> 1000 nM
same,Guinea pig colonic LMMP contractile activity IA (mean % 5-HT max ± SEM),5-HT4 receptor,55 % 5-HT max and 55 ± 2 % 5-HT max
same,pKi,Rat α1 (non-selective),<6
same,% Inhibition of specific binding (1 μM),Rat α1 (non-selective); TD-8954 1 μM,−1%
same,Ki,Human δ2,> 1000 nM
same,Ki,Human 5-HT5a,> 1000 nM
same,Ki,Human D5,> 1000 nM
same,pKi,Rat AMPA,<6
same,% Inhibition of specific binding (1 μM),Rat AMPA; TD-8954 1 μM,−4%
same,Ki,Human M1,> 1000 nM
same,Ki,Human CCK1 (CCKA),> 1000 nM
same,free plasma AUC0–24,[3],36.2 nM/h
same,free plasma Cmax,[3],3.4 nM/h
same,Ki,Human 5-HT6,> 1000 nM
same,onset of contractile activity after dosing,[4],≤ 10 min
same,"effect on contractility in the antrum, duodenum, and jejunum","[4]; TD-8954 0.01 and 0.03 mg/kg, tegaserod 0.1 and 0.3 mg/kg",increases in contractility
same,pKi,[5],<6
same,Ki,Human ETB,> 1000 nM
same,inhibition at 1 µM,Human ETB; [8],5%
same,Ki,Human 5-HT2A,> 1000 nM
same,Ki,Human ETA,> 1000 nM
same,Ki,Rat dopamine transporter,> 1000 nM
same,inhibition at 1 µM,Rat dopamine transporter; [8],3%
same,Ki,Human CB1,> 1000 nM
same,Ki,Human 5-HT transporter,> 1000 nM
same,Ki,Human β1,> 1000 nM
same,Ki,Human VPAC1 (VIP1),> 1000 nM
same,inhibition at 1 µM,Human VPAC1 (VIP1); [8],2%
same,Ki,Human D4.4,> 1000 nM
same,inhibition at 1 µM,Human D4.4; [8],6%
same,pKi,Rat BB (non-selective),<6
same,% Inhibition of specific binding (1 μM),Rat BB (non-selective); TD-8954 1 μM,4%
same,pKi,[6],<6
same,Ki,[7],> 1000 nM
same,inhibition at 1 µM,[7]; [8],3%
